Assay results as given in PubChem BioAssay AID248 (DTP/NCI, 2004).
Several values for one entry are separate records, joined by “and”; a condition that tells them apart may be missing. Identical values can stand only once. Toxic doses and inconclusive results are not listed. Rule as the data show it: active = T/C of 150% or more; inactive = T/C below 125%. Numbered stars: 1 amine (or outer) side, 2 acyl side, 3 side chain; on linkers, the order of the positions; unused ones are H or OH. Bridge positions count the residues as written; N and C are the ends. Square brackets hold non-standard residues; d marks the D form. Peptide text beside a SMILES is read from it. I, II: the chains in the order shown. Actinocin(9to1) = Cc1c2oc3c(C)ccc(C(=O)[*:1])c3nc-2c(C(=O)[*:2])c(N)c1=O; aThr = C[C@H](O)[C@H](N)C(=O)O; NMeV = CN[C@H](C(=O)O)C(C)C; Sar = CNCC(=O)O

Test system: L1210 leukemia ip in BDF1 mice, survival T/C
Assay: NCI In Vivo Anticancer Drug Screen. Data for tumor model L1210 Leukemia (intraperitoneal) in B6D2F1 (BDF1) mice
Conditions: higher = longer survival
Outline: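 Mice bearing the transplanted tumor received compound or vehicle. Survival of the treated group was divided by that of the vehicle-treated control group to give the ratio.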

Measured: T/C

Cc1c2oc3c(C)ccc(C(=O)N[C@@H]4C(=O)N[C@H](C(C)C)C(=O)N5CCC[C@H]5C(=O)N(C)CC(=O)N(C)[C@@H](C(C)C)C(=O)O[C@H]4C)c3nc-2c(C(=O)N[C@@H]2C(=O)N[C@H](C(C)C)C(=O)N3CCC[C@H]3C(=O)N(C)CC(=O)N(C)[C@@H](C(C)C)C(=O)O[C@H]2C)c(N)c1=O (I: [aThr][dV]P[Sar][NMeV] / II: [aThr][dV]P[Sar][NMeV]; ester I:1-I:C, II:1-II:C; linker I:N-II:N via Actinocin(9to1))
inactive: endpoint: mean survival time, dose: 0.02 mg/kg/injection, schedule: Q04DX003 (ip), vehicle: water 102 % of control and 105 % of control | endpoint: mean survival time, dose: 0.03 mg/kg/injection, schedule: Q01DX009 (ip), vehicle: saline 111 % of control | endpoint: mean survival time, dose: 0.03 mg/kg/injection, schedule: Q04DX003 (ip), vehicle: water 105 % of control and 110 % of control | endpoint: mean survival time, dose: 0.05 mg/kg/injection, schedule: Q01DX009 (ip), vehicle: saline 111 % of control | endpoint: mean survival time, dose: 0.05 mg/kg/injection, schedule: Q04DX003 (ip), vehicle: other 103 % of control | endpoint: mean survival time, dose: 0.1 mg/kg/injection, schedule: Q01DX009 (ip), vehicle: saline + alcohol 103 % of control | endpoint: mean survival time, dose: 0.11 mg/kg/injection, schedule: Q01DX001 (ip), vehicle: saline 108 % of control | endpoint: mean survival time, dose: 0.12 mg/kg/injection, schedule: Q01DX Z (ip), vehicle: carboxymethylcellulose (CMC) 102 % of control | endpoint: mean survival time, dose: 0.13 mg/kg/injection, schedule: Q01DX009 (ip), vehicle: saline 103 % of control | endpoint: mean survival time, dose: 0.15 mg/kg/injection, schedule: Q02DX010 (ip), vehicle: carboxymethylcellulose (CMC) 104 % of control | endpoint: mean survival time, dose: 0.16 mg/kg/injection, schedule: Q01DX Z (ip), vehicle: carboxymethylcellulose (CMC) 94 % of control | endpoint: mean survival time, dose: 0.16 mg/kg/injection, schedule: Q## X032 (ip), vehicle: saline 107 % of control | endpoint: mean survival time, dose: 0.2 mg/kg/injection, schedule: Q01DX009 (ip), vehicle: saline 109 % of control | endpoint: mean survival time, dose: 0.22 mg/kg/injection, schedule: Q02DX010 (ip), vehicle: other 100 % of control | endpoint: mean survival time, dose: 0.23 mg/kg/injection, schedule: Q02DX010 (ip), vehicle: carboxymethylcellulose (CMC) 92 % of control | endpoint: mean survival time, dose: 0.24 mg/kg/injection, schedule: Q## X032 (ip), vehicle: saline 109 % of control | endpoint: mean survival time, dose: 0.3 mg/kg/injection, schedule: Q## X032 (ip), vehicle: saline 110 % of control | endpoint: mean survival time, dose: 1.0 mg/kg/injection, schedule: Q## X004 (ip), vehicle: saline 101 % of control | endpoint: mean survival time, dose: 0.7 micrograms/kg/injection, schedule: Q01DX009 (ip), vehicle: saline 100 % of control and 104 % of control | endpoint: mean survival time, dose: 0.8 micrograms/kg/injection, schedule: Q01DX Z (ip), vehicle: saline 104 % of control | endpoint: mean survival time, dose: 1.5 micrograms/kg/injection, schedule: Q01DX009 (ip), vehicle: saline 97 % of control and 104 % of control | endpoint: mean survival time, dose: 3.0 micrograms/kg/injection, schedule: Q01DX009 (ip), vehicle: saline 102 % of control and 104 % of control | endpoint: mean survival time, dose: 3.1 micrograms/kg/injection, schedule: Q01DX001 (ip), vehicle: saline 100 % of control | endpoint: mean survival time, dose: 3.2 micrograms/kg/injection, schedule: Q01DX Z (ip), vehicle: saline 107 % of control | endpoint: mean survival time, dose: 3.5 micrograms/kg/injection, schedule: Q01DX009 (ip), vehicle: saline 97 % of control | endpoint: mean survival time, dose: 3.5 micrograms/kg/injection, schedule: Q01DX Z (ip), vehicle: carboxymethylcellulose (CMC) 109 % of control | endpoint: mean survival time, dose: 4.0 micrograms/kg/injection, schedule: Q01DX009 (ip), vehicle: water 103 % of control and 106 % of control | endpoint: mean survival time, dose: 5.4 micrograms/kg/injection, schedule: Q01DX Z (ip), vehicle: carboxymethylcellulose (CMC) 111 % of control | endpoint: mean survival time, dose: 6.3 micrograms/kg/injection, schedule: Q01DX001 (ip), vehicle: saline 107 % of control | endpoint: mean survival time, dose: 12.0 micrograms/kg/injection, schedule: Q01DX006 (iv), vehicle: other 103 % of control | endpoint: mean survival time, dose: 12.0 micrograms/kg/injection, schedule: Q01DX Z (im), vehicle: other 103 % of control | endpoint: mean survival time, dose: 12.0 micrograms/kg/injection, schedule: Q01DX Z (sc), vehicle: other 105 % of control | endpoint: mean survival time, dose: 12.5 micrograms/kg/injection, schedule: Q01DX001 (ip), vehicle: saline 101 % of control | endpoint: mean survival time, dose: 12.5 micrograms/kg/injection, schedule: Q01DX009 (ip), vehicle: water 103 % of control | endpoint: mean survival time, dose: 17.0 micrograms/kg/injection, schedule: Q04DX002 (ip), vehicle: saline 97 % of control and 100 % of control | endpoint: mean survival time, dose: 20.0 micrograms/kg/injection, schedule: Q01DX015 (ip), vehicle: saline 108 % of control | endpoint: mean survival time, dose: 25.0 micrograms/kg/injection, schedule: Q01DX001 (ip), vehicle: saline 111 % of control | endpoint: mean survival time, dose: 25.0 micrograms/kg/injection, schedule: Q01DX009 (ip), vehicle: water 106 % of control | endpoint: mean survival time, dose: 25.0 micrograms/kg/injection, schedule: Q01DX Z (sc), vehicle: other 103 % of control | endpoint: mean survival time, dose: 35.0 micrograms/kg/injection, schedule: Q04DX002 (ip), vehicle: saline 103 % of control and 106 % of control | endpoint: mean survival time, dose: 40.0 micrograms/kg/injection, schedule: Q01DX Z (ip), vehicle: carboxymethylcellulose (CMC) 110 % of control | endpoint: mean survival time, dose: 50.0 micrograms/kg/injection, schedule: Q01DX001 (ip), vehicle: saline 109 % of control | endpoint: mean survival time, dose: 50.0 micrograms/kg/injection, schedule: Q01DX009 (ip), vehicle: water 105 % of control | endpoint: mean survival time, dose: 50.0 micrograms/kg/injection, schedule: Q01DX Z (oral), vehicle: other 111 % of control | endpoint: mean survival time, dose: 60.0 micrograms/kg/injection, schedule: Q01DX Z (ip), vehicle: carboxymethylcellulose (CMC) 100 % of control | endpoint: mean survival time, dose: 64.0 micrograms/kg/injection, schedule: Q01DX001 (ip), vehicle: clinical formulation 107 % of control | endpoint: mean survival time, dose: 64.0 micrograms/kg/injection, schedule: Q01DX001 (ip), vehicle: saline 104 % of control | endpoint: mean survival time, dose: 64.0 micrograms/kg/injection, schedule: Q01DX009 (ip), vehicle: clinical formulation 103 % of control | endpoint: mean survival time, dose: 70.0 micrograms/kg/injection, schedule: Q04DX002 (ip), vehicle: saline 109 % of control | endpoint: mean survival time, dose: 100.0 micrograms/kg/injection, schedule: Q01DX001 (ip), vehicle: saline 109 % of control | endpoint: mean survival time, dose: 100.0 micrograms/kg/injection, schedule: Q01DX009 (ip), vehicle: saline + alcohol 103 % of control | endpoint: mean survival time, dose: 100.0 micrograms/kg/injection, schedule: Q01DX Z (ip), vehicle: other 101 % of control | endpoint: mean survival time, dose: 100.0 micrograms/kg/injection, schedule: Q01DX Z (oral), vehicle: other 107 % of control | endpoint: mean survival time, dose: 128.0 micrograms/kg/injection, schedule: Q01DX001 (ip), vehicle: clinical formulation 109 % of control | endpoint: mean survival time, dose: 128.0 micrograms/kg/injection, schedule: Q01DX001 (ip), vehicle: saline 109 % of control | endpoint: mean survival time, dose: 140.0 micrograms/kg/injection, schedule: Q04DX002 (ip), vehicle: saline 93 % of control and 102 % of control | endpoint: mean survival time, dose: 280.0 micrograms/kg/injection, schedule: Q04DX002 (ip), vehicle: saline 106 % of control | endpoint: mean survival time, dose: 512.0 micrograms/kg/injection, schedule: Q04DX003 (ip), vehicle: water 100 % of control | endpoint: mean survival time, dose: 570.0 micrograms/kg/injection, schedule: Q04DX002 (ip), vehicle: saline 100 % of control | endpoint: median survival time, dose: 0.01 mg/kg/injection, schedule: Q01DX009 (ip), vehicle: water 107 % of control | endpoint: median survival time, dose: 0.02 mg/kg/injection, schedule: Q01DX009 (ip), vehicle: water 109 % of control (2×) and 110 % of control | endpoint: median survival time, dose: 0.03 mg/kg/injection, schedule: Q04DX003 (ip), vehicle: water 100 % of control | endpoint: median survival time, dose: 0.05 mg/kg/injection, schedule: Q01DX001 (ip), vehicle: saline 98 % of control | endpoint: median survival time, dose: 0.05 mg/kg/injection, schedule: Q01DX002 (ip), vehicle: saline 111 % of control | endpoint: median survival time, dose: 0.06 mg/kg/injection, schedule: Q01DX001 (ip), vehicle: water 100 % of control | endpoint: median survival time, dose: 0.06 mg/kg/injection, schedule: Q04DX003 (ip), vehicle: water 107 % of control | endpoint: median survival time, dose: 0.06 mg/kg/injection, schedule: Q08DX002 (ip), vehicle: water 94 % of control | endpoint: median survival time, dose: 0.08 mg/kg/injection, schedule: Q01DX009 (ip), vehicle: water 108 % of control | endpoint: median survival time, dose: 0.1 mg/kg/injection, schedule: Q01DX001 (ip), vehicle: saline 102 % of control | endpoint: median survival time, dose: 0.12 mg/kg/injection, schedule: Q01DX001 (ip), vehicle: water 111 % of control | endpoint: median survival time, dose: 0.12 mg/kg/injection, schedule: Q08DX002 (ip), vehicle: water 105 % of control | endpoint: median survival time, dose: 0.2 mg/kg/injection, schedule: Q01DX001 (ip), vehicle: saline 109 % of control | endpoint: median survival time, dose: 0.4 mg/kg/injection, schedule: Q01DX001 (ip), vehicle: saline 111 % of control | endpoint: median survival time, dose: 0.5 mg/kg/injection, schedule: Q04DX003 (ip), vehicle: water 96 % of control | endpoint: median survival time, dose: 4.0 micrograms/kg/injection, schedule: Q03HX016 (ip), vehicle: water 94 % of control | endpoint: median survival time, dose: 8.0 micrograms/kg/injection, schedule: Q03HX008 (ip), vehicle: water 100 % of control | endpoint: median survival time, dose: 8.0 micrograms/kg/injection, schedule: Q03HX016 (ip), vehicle: water 111 % of control | endpoint: median survival time, dose: 16.0 micrograms/kg/injection, schedule: Q03HX008 (ip), vehicle: water 111 % of control | endpoint: median survival time, dose: 16.0 micrograms/kg/injection, schedule: Q03HX016 (ip), vehicle: water 100 % of control | endpoint: median survival time, dose: 31.0 micrograms/kg/injection, schedule: Q03HX016 (ip), vehicle: water 100 % of control | endpoint: median survival time, dose: 200.0 micrograms/kg/injection, schedule: Q01DX009 (ip), vehicle: saline 93 % of control
